Measurements from PMC9229294, “Pyridazinones and Structurally Related Derivatives with Anti-Inflammatory Activity” (Molecules, 2022).
Where two headings read alike, the source gives them in different places.

Tests used:
FPR1 = target: T1, FPR1 (Homo sapiens, UniProt P21462); conditions: FPR1-transfected HL-60 cells, read-out: Ca2+ Mobilization FPR1 EC50 in HL-60 Cells, cited from earlier work
T1 construct: expressed in transfected cells; host or cells: HL-60 cells (FPR1-HL60)
T1 sequence (P21462 1-350): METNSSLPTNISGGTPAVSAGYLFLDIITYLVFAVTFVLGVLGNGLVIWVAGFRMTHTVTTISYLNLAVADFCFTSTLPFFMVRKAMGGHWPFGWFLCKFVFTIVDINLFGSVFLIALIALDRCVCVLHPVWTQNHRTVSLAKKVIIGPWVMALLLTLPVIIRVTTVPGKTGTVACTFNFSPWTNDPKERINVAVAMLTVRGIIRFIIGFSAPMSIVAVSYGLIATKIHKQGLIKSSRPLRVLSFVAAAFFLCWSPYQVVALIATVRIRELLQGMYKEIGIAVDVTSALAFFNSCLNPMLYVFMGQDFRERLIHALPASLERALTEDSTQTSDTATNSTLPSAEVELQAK

[1] = test system: LPS-induced NF-κB activity in THP1-Blue cells; experiment: Inhibition of LPS-induced NF-κB transcriptional activity, alkaline phosphatase reporter, THP1-Blue cells; format: cell-based, human; conditions: for IC50: Homo sapiens, LPS-induced NF-κB activity, human THP1-Blue cells, N.A. = no activity at 50 µM; for Observed class for inhibition of NF-κB activity: experimentally observed, Active or N.A.; for Inhibition of LPS-induced NF-κB activity (in words): THP1-Blue cells, 250 ng/mL LPS, 24 h
Experimental: (§1) Our studies included 175 compounds that were previously synthesized and characterized at NEUROFARBA, Pharmaceutical and Nutraceutical Section, University of Florence, Italy. We previously evaluated the FPR1/FPR2 agonist activity of these compounds by evaluating their ability to induce Ca^2+ mobilization in FPR-transfected HL60 cells and human neutrophils. […] All test compounds were dissolved in DMSO at stock concentrations of 10 mM and stored at −20 °C. For primary screening assays (analysis of NF-κB activation, IL-6 production, and cytotoxicity), the following final concentrations of the compounds were used: 3.125, 6.25, 12.5, 25, and 50 µM; the final concentration of DMSO was 1% in all samples.
The activation of NF-κB was measured using an alkaline phosphatase reporter assay in human monocytic THP1-Blue cells stably transfected with a secreted embryonic alkaline phosphatase gene that is under the control of a promoter inducible by the NF-κB. The THP1-Blue cells (2 × 10^5 cells/well) were pretreated with the test compound or DMSO for 30 min, followed by an addition of 250 ng/mL LPS for 24 h. Alkaline phosphatase activity was determined in cell supernatants using a QUANTI-Blue mix (InvivoGen) and measured at 655 nm and compared with positive control samples (LPS).

[2] = test system: LPS-induced IL-6 production in MonoMac-6 cells; experiment: Inhibition of LPS-induced IL-6 production in MonoMac-6 cells (ELISA); format: cell-based, human; conditions: for IC50: Homo sapiens, MONO-MAC-6, read-out: Inhibition of IL-6 Production IC50 in MonoMac-6 Cells; for Inhibition of LPS-induced IL-6 production (in words): MonoMac-6 cells, 250 ng/mL LPS, 24 h
Experimental: as §1
A human IL-6 ELISA kit (BD Biosciences, San Jose, CA, USA) was used to measure IL-6 production. […] The cells were pretreated with the test compound or DMSO for 30 min, followed by addition of 250 ng/mL LPS for 24 h. The IC50 values for IL-6 production were calculated by plotting the percentage inhibition against the logarithm of the inhibitor concentration (at least five points).

FPR2 = target: T2, FPR2 (Homo sapiens, UniProt P25090); conditions: FPR2-transfected HL-60 cells, read-out: Ca2+ Mobilization FPR2 EC50 in HL-60 Cells, cited from earlier work
T2 construct: expressed in transfected cells; host or cells: HL-60 cells (FPR2-HL60)
T2 sequence (P25090 1-351): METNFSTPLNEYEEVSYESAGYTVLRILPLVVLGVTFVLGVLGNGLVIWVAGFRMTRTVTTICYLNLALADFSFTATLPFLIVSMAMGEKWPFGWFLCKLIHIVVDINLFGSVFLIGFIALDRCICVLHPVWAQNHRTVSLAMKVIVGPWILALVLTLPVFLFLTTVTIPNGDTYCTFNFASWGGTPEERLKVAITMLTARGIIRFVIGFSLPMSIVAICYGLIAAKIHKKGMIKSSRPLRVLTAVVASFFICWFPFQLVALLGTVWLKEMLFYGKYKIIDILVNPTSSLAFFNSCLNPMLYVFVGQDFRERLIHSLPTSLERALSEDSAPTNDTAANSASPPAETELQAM

[3] = Cytotoxicity, CellTiter-Glo, THP1-Blue cells; format: cell-based, human; conditions: human, THP1-Blue cells; N.T. = no cytotoxicity at 50 µM; read-out: Cytotoxicity IC50 in THP1-Blue Cells
Experimental: as §1
(§2) The cytotoxicity was analyzed with a CellTiter-Glo Luminescent Cell Viability Assay Kit from Promega (Madison, WI, USA), according to the manufacturer’s protocol. The luminescent ATP assays are based on a luciferase enzymatic reaction which uses ATP from viable cells to generate photons. For this assay, the cells were incubated with the compounds under investigation for 24 h. After treatment, the cells were equilibrated to room temperature for 30 min, luciferase + luciferin substrate was added, and the samples were analyzed with a Fluoroscan Ascent FL (Thermo Fisher Scientific, Waltham, MA, USA). The IC50 values were calculated by plotting the percentage inhibition against the logarithm of the inhibitor concentration (at least five points).

[4] = Cytotoxicity, CellTiter-Glo, MonoMac-6 cells; format: cell-based, human; conditions: human, MonoMac-6 cells
Experimental: as §1, §2

[5] = Table 3, as reported previously (see Table 1)

Compound | EC50 (FPR1; agonist activity from Table 1) [µM] | EC50 (FPR1; [5]) [µM] | IC50 [1] [µM] | Observed class for inhibition of NF-κB activity [1] | IC50 [2] [µM] | Inhibition of LPS-induced IL-6 production (in words) [2] | EC50 (FPR2; agonist activity from Table 1) [µM] | EC50 (FPR2; [5]) [µM] | IC50 at 24 h [3] [µM] | IC50 at 24 h [4] [µM] | Inhibition of LPS-induced NF-κB activity (in words) [1]
COc1ccc(-c2cc(Cc3cccc(OC)c3)c(=O)n(CC(=O)Nc3ccc(F)cc3)n2)cc1 [Compound 38] | > 50 | > 50 | 19.6 ± 4.3 | Active | 20.3 ± 1.8 | inhibitors of IL-6 production | > 50 | > 50 | > 50 | > 50 | –
COc1cccc(Cc2cc(-c3ccc(Cl)cc3)nn(CC(=O)Nc3ccc(F)cc3)c2=O)c1 [Compound 42] | > 50 | > 50 | 22.5 ± 2.3 | – | 35.6 ± 3.1 | inhibitors of IL-6 production | > 50 | > 50 | > 50 | > 50 | active
COc1cccc(Cc2cc(-c3ccc(C)cc3)nn(CC(=O)Nc3ccc(F)cc3)c2=O)c1 [Compound 46] | > 50 | > 50 | 8.2 ± 1.2 | – | > 50 | inhibitors of IL-6 production | > 50 | > 50 | > 50 | > 50 | active
COc1cccc(Cc2cc(-c3ccc(F)cc3)nn(CC(=O)Nc3ccc(F)cc3)c2=O)c1 [Compound 47] | > 50 | > 50 | 3.4 ± 0.2 | – | 18.8 ± 2.9 | inhibitors of IL-6 production | > 50 | > 50 | > 50 | > 50 | active
CCc1c(C)nn(CC(=O)Nc2ccc(Br)cc2)c(=O)c1Cc1cccc(OC)c1 [Compound 78] | – | 3.2 | 20.7 ± 0.7 | Active | 17 ± 0.4 | – | – | 1.9 | > 50 | > 50 | –
CCCc1c(C)nn(CC(=O)Nc2ccc(Br)cc2)c(=O)c1Cc1cccc(OC)c1 [Compound 79] | 2.2 | – | 15.7 ± 1.4 | Active | 13.7 ± 1.4 | – | 4.6 | – | > 50 | > 50 | –
CCCCc1c(C)nn(CC(=O)Nc2ccc(Br)cc2)c(=O)c1Cc1cccc(OC)c1 [Compound 80] | > 50 | > 50 | 15 ± 1.5 | Active | 33.5 ± 2.4 | – | – | 15.7 | > 50 | > 50 | –
CCCc1c(C)nn(CC(=O)Nc2ccc(Br)cc2)c(=O)c1Nc1cccc(OC)c1 [Compound 83] | > 50 | > 50 | 14.6 ± 1.4 | Active | 15.2 ± 0.2 | inhibitors of IL-6 production | > 50 | > 50 | > 50 | > 50 | –
COc1cccc(Cc2cc(C)nn(C(C)(C)C(=O)Nc3ccc(Br)cc3)c2=O)c1 [Compound 89] | 6.3 | 6.3 | 29.2 ± 1 | Active | 27.9 ± 2.2 | – | 20.4 | 20.4 | > 50 | > 50 | –
